Reference: ChEMBL document CHEMBL1201862, “PubChem BioAssay data set” (2004)
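Test compounds were applied to cells in 96-well plates for 48 hours at 5 doses. At the GI50, growth is halved.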 Activity calls are given as the source filed them. Cut-off read from the data, not from the text of the source: active = GI50 up to about 1.1 µM and inactive = higher.

Key:
Experiment in all cases: DTP human tumour cell line panel, 48 h
SK-MEL-5 = test system: SK-MEL-5
T47D = test system: T47D
MDA-MB-231 = test system: MDA-MB-231
TK-10 = test system: TK-10
OVCAR-4 = test system: OVCAR-4
SK-MEL-28 = test system: SK-MEL-28
RXF 393 = test system: RXF 393
COLO 205 = test system: COLO 205
NCI-H226 = test system: NCI-H226
DU-145 = test system: DU-145
Hs-578T = test system: Hs-578T
SK-MEL-2 = test system: SK-MEL-2
NCI-H460 = test system: NCI-H460
HT-29 = test system: HT-29
MDA-MB-435 = test system: MDA-MB-435
A498 = test system: A498
UACC-62 = test system: UACC-62
HCT-116 = test system: HCT-116
U-251 = test system: U-251
K562 = test system: K562

Row | Compound | GI50 (SK-MEL-5) | GI50 (T47D) | GI50 (MDA-MB-231) | GI50 (TK-10) | GI50 (OVCAR-4) | GI50 (SK-MEL-28) | GI50 (RXF 393) | GI50 (COLO 205) | GI50 (NCI-H226) | GI50 (DU-145) | GI50 (Hs-578T) | GI50 (SK-MEL-2) | GI50 (NCI-H460) | GI50 (HT-29) | GI50 (MDA-MB-435) | GI50 (A498) | GI50 (UACC-62) | GI50 (HCT-116) | GI50 (U-251) | GI50 (K562)
1 | O=C1CSC(=O)/C1=C\NNc1nc2ccccc2o1 | 14.4 µM (inactive) | 6.34 µM (inactive) | 30.9 µM (inactive) | 53.3 µM (inactive) | 38.3 µM (inactive) | 67 µM (inactive) | 21.8 µM (inactive) | 27 µM (inactive) | 36 µM (inactive) | 47.5 µM (inactive) | 52.7 µM (inactive) | 37.2 µM (inactive) | 23.8 µM (inactive) | 24.7 µM (inactive) | 65.9 µM (inactive) | 25.5 µM (inactive) | 18 µM (inactive) | 17 µM (inactive) |  | 
2 | O=C(CSCC(=O)N/N=C/c1ccc2c(c1)OCO2)N/N=C/c1ccc2c(c1)OCO2 | 24.2 µM (inactive) | 55.5 µM (inactive) | > 100 µM (inactive) | > 100 µM (inactive) | > 100 µM (inactive) | > 100 µM (inactive) | > 100 µM (inactive) |  | 40.2 µM (inactive) | > 100 µM (inactive) | > 100 µM (inactive) | > 100 µM (inactive) | > 100 µM (inactive) | > 100 µM (inactive) | 38.3 µM (inactive) | > 100 µM (inactive) | 52.6 µM (inactive) | 85.7 µM (inactive) | > 100 µM (inactive) | 38.3 µM (inactive)
3 | COc1ccc(-c2nnc3n(Cc4ccccc4)c4ccccc4n3c2=O)cc1 | 53.5 µM (inactive) | 45.6 µM (inactive) | 26.1 µM (inactive) | 21.9 µM (inactive) | 6.01 µM (inactive) | 36.4 µM (inactive) | 26.8 µM (inactive) | > 100 µM (inactive) | 17.4 µM (inactive) | 59.4 µM (inactive) | 22.1 µM (inactive) | 14.8 µM (inactive) | 33.5 µM (inactive) | > 100 µM (inactive) | 4.76 µM (inactive) | 22.7 µM (inactive) |  | 38.7 µM (inactive) | 19.9 µM (inactive) | 
4 | O=S(=O)(O)C(Cc1nc2ccccc2[nH]1)S(=O)(=O)OCCC1S(=O)(=O)OCCOS1(=O)=O (stereo not drawn) | > 100 µM (inactive) | > 100 µM (inactive) | > 100 µM (inactive) | > 100 µM (inactive) | > 100 µM (inactive) | > 100 µM (inactive) | > 100 µM (inactive) | > 100 µM (inactive) | > 100 µM (inactive) | > 100 µM (inactive) | > 100 µM (inactive) | > 100 µM (inactive) | > 100 µM (inactive) | > 100 µM (inactive) | > 100 µM (inactive) | > 100 µM (inactive) | > 100 µM (inactive) | > 100 µM (inactive) | > 100 µM (inactive) | > 100 µM (inactive)
5 | Clc1ccc(OCc2nnc(CCCCCCCCc3nnc(COc4ccc(Cl)cc4Cl)n3Nc3ccccc3)n2Nc2ccccc2)c(Cl)c1 | 2.23 µM (inactive) | 6.53 µM (inactive) | 8.41 µM (inactive) | 16.8 µM (inactive) | 8.51 µM (inactive) | 5.46 µM (inactive) | 16.3 µM (inactive) | 1.5 µM (inactive) | 9.51 µM (inactive) | 18.6 µM (inactive) | 15.8 µM (inactive) | 8.04 µM (inactive) | 4.15 µM (inactive) | 13.8 µM (inactive) | 5.97 µM (inactive) | 21.4 µM (inactive) | 1.47 µM (inactive) | 11.4 µM (inactive) | 13.1 µM (inactive) | 
6 | Cc1nnc2sc(NN)nn12 | > 100 µM (inactive) | > 100 µM (inactive) | > 100 µM (inactive) | > 100 µM (inactive) | > 100 µM (inactive) | > 100 µM (inactive) | > 100 µM (inactive) | > 100 µM (inactive) | > 100 µM (inactive) | > 100 µM (inactive) | > 100 µM (inactive) | > 100 µM (inactive) | > 100 µM (inactive) | > 100 µM (inactive) | > 100 µM (inactive) | > 100 µM (inactive) | 77.4 µM (inactive) | > 100 µM (inactive) | > 100 µM (inactive) | > 100 µM (inactive)
7 | COc1cccc(-c2cc(O)c3c(C)ccnc3n2)c1 | 0.0241 µM (active) | 49 µM (inactive) | 0.279 µM (active) | > 100 µM (inactive) | 18 µM (inactive) |  | 0.0284 µM (active) | 0.0199 µM (active) | 0.0272 µM (active) | 0.0471 µM (active) | 0.0222 µM (active) | 0.0695 µM (active) | 0.0395 µM (active) | 0.0233 µM (active) | < 0.01 µM (active) | 0.0344 µM (active) | 0.0267 µM (active) | 0.0392 µM (active) | 0.036 µM (active) | < 0.0113 µM (active)
